{
  "source": "patent US20230348447A1",
  "about": "“OXAZOLIDINONE COMPOUNDS, LIPOSOME COMPOSITIONS COMPRISING OXAZOLIDINONE COMPOUNDS AND METHOD OF USE THEREOF” (priority 2020, published 2023)",
  "key": {"[1]": {"tested_on": "M. Tuberculosis Erdman", "test": "Efficacy of monotherapy in chronic Balb/c model of tuberculosis (lung and spleen CFU)", "assay_type": "in vivo, Mycobacterium tuberculosis (in Balb/c mice)"}, "[2]": {"tested_on": "M.tb H37Rv", "test": "Broth microdilution MIC with Alamar blue endpoint (MABA) / OD600", "assay_type": "cell-based, Mycobacterium tuberculosis", "conditions": "Mycobacterium tuberculosis, H37RV"}, "[3]": {"tested_on": "M.tb Erdman", "test": "Broth microdilution MIC with Alamar blue endpoint (MABA) / OD600", "assay_type": "cell-based, Mycobacterium tuberculosis", "conditions": "Mycobacterium tuberculosis"}, "[4]": {"conditions": "male, Sprague-Dawley, rat, in vivo, po, 50 mg/kg"}, "[5]": {"test": "Liposome loading / encapsulation efficiency (General protocol)", "conditions": "HSPC, 5 mol% PEG-lipid, 40-65 mol% Chol; DL0 250 (AKG-28) or 500 (AKG-38)"}, "[6]": {"test": "in vivo", "conditions": "male, Sprague-Dawley, rat"}, "[7]": {"tested_on": "M. Tuberculosis Erdman", "conditions": "eight weeks, Balb/c and C3HeB/FeJ mice; cited from earlier work"}, "[8]": {"conditions": "male, Sprague-Dawley, rat, in vivo, 50 mg/kg, 8 weeks", "experimental": "The control group was injected once weekly for 8 weeks with an equal volume of HEPES buffered saline (HBS, pH 7). Before the endpoint of the study animals were humanely euthanized by exsanguination from the abdominal aorta following isoflurane anesthesia. Blood and tissue samples were collected for evaluation of clinical pathology parameters. Representative samples of tissues were collected and preserved in 10% neutral buffered, embedded in paraffin, sectioned, mounted on glass slides, stained with hematoxylin and eosin, and evaluated for histopathology by a board-certified veterinary pathologist.\nThe following parameters and end points were also evaluated: mortality and moribundity check, clinical observations, body weights, food consumption, nerve conduction velocity (NCV) and muscle action potential (MAP), functional observation battery (FOB)."}, "[9]": {"conditions": "Balb/c mice, 50 mg/kg, q1x5, oral gavage"}, "[10]": {"conditions": "Balb/c mice, 100 mg/kg, q1x5, oral gavage"}},
  "note": "Like-named read-outs stand apart in the source and are kept apart here.",
  "data": [
    {"smiles": "CC(=O)NC[C@H]1CN(c2ccc(N3CCOCC3)c(F)c2)C(=O)O1", "note": "[Linezolid]", "values": [
      {"measurement": "Lung Log CFU, 4 week", "setting": "[1]; [9]", "result": "4.61 ± 0.31", "unit": "Log CFU"},
      {"measurement": "Spleen Log CFU, 4 week", "setting": "[1]; [9]", "result": "4.32 ± 0.28", "unit": "Log CFU"},
      {"measurement": "Lung Log CFU, 2 week", "setting": "[1]; [10]", "result": "5.58 ± 0.10", "unit": "Log CFU"},
      {"measurement": "Lung Log CFU, 4 week", "setting": "[1]; [10]", "result": "4.17 ± 0.21", "unit": "Log CFU"},
      {"measurement": "Lung Log CFU, 8 week", "setting": "[1]; [10]", "result": "2.45 ± 0.37", "unit": "Log CFU"},
      {"measurement": "Spleen Log CFU, 2 week", "setting": "[1]; [10]", "result": "4.53 ± 0.25", "unit": "Log CFU"},
      {"measurement": "Spleen Log CFU, 4 week", "setting": "[1]; [10]", "result": "3.90 ± 0.28", "unit": "Log CFU"},
      {"measurement": "log10 CFU in lungs", "setting": "[1]; eight weeks, linezolid 100 mg/kg, detection limit 1.13", "result": 2.45, "unit": "log10 CFU"},
      {"measurement": "Log10 CFU reduction, lungs", "setting": "[1]; two weeks, Ls-AKG28 50 mg/kg twice weekly or 100 mg/kg once weekly, linezolid 100 mg/kg (q1x5)", "result": "less than 0.15 Log10 CFU"},
      {"measurement": "MIC", "setting": "[2]; as determined in Example 2, read-out: MIC (H37Rv)", "result": 1, "unit": "µg/mL"},
      {"measurement": "MIC", "setting": "[2]; read-out: Mycobacterium tuberculosis MIC, H37Rv", "result": 1, "unit": "µg/mL"},
      {"measurement": "MIC", "setting": "[3]; ERDMAN, read-out: Mycobacterium tuberculosis MIC, Erdman", "result": 1, "unit": "µg/mL"},
      {"measurement": "MIC", "setting": "[3]; M. tuberculosis Erdman / H37Rv, strains not separated, read-out: MIC", "result": 2, "unit": "µg/mL"},
      {"measurement": "AUC0-inf", "setting": "[4]", "result": 373.53, "unit": "µg·h/mL"},
      {"measurement": "Clearance", "setting": "[4]", "result": 2.231, "unit": "mL/min/kg"},
      {"measurement": "T ½", "setting": "[4]", "result": 11.86, "unit": "h"},
      {"measurement": "Vd", "setting": "[4]", "result": "2,291.26 mL/kg"},
      {"measurement": "EE", "setting": "[5]", "result": "less than 5%"},
      {"measurement": "Vd", "setting": "[6]", "result": 2.29, "unit": "L/kg"},
      {"measurement": "AUC", "setting": "[6]; po, 50 mg/kg", "result": 282, "unit": "µg·h/mL"},
      {"measurement": "AUC0-inf", "setting": "[6]; po, 50 mg/kg", "result": 374, "unit": "µg·h/mL"},
      {"measurement": "AUC(0-t)", "setting": "[6]; po, 50 mg/kg", "result": 282, "unit": "µg·h/mL"},
      {"measurement": "Cmax", "setting": "[6]; po, 50 mg/kg", "result": 26700, "unit": "ng/mL"},
      {"measurement": "Tmax", "setting": "[6]; po, 50 mg/kg", "result": 1, "unit": "h"},
      {"measurement": "half-life", "setting": "[6]; po, 50 mg/kg", "result": 11.9, "unit": "h"},
      {"measurement": "log10 CFU counts, monotherapy (Lanoix et al. 2015)", "setting": "[7]", "result": "4-6 log10 CFU"},
      {"measurement": "Kidney: Vacuolation, mesangial cell, glomerular, Minimal (animals)", "setting": "[8]", "result": 0},
      {"measurement": "Kidney: Vacuolation, mesangial cell, glomerular, number of animals with the finding", "setting": "[8]", "result": "(0)"},
      {"measurement": "Liver: Degeneration, hepatocellular, centrilobular, Mild (animals)", "setting": "[8]", "result": 0},
      {"measurement": "Liver: Degeneration, hepatocellular, centrilobular, Minimal (animals)", "setting": "[8]", "result": 0},
      {"measurement": "Liver: Degeneration, hepatocellular, centrilobular, number of animals with the finding", "setting": "[8]", "result": "(0)"},
      {"measurement": "Liver: Single cell necrosis, centrilobular, Minimal (animals)", "setting": "[8]", "result": 2},
      {"measurement": "Liver: Single cell necrosis, centrilobular, number of animals with the finding", "setting": "[8]", "result": "(2)"},
      {"measurement": "Spleen: Accumulation, basophilic material, Mild (animals)", "setting": "[8]", "result": 0},
      {"measurement": "Spleen: Accumulation, basophilic material, Minimal (animals)", "setting": "[8]", "result": 0},
      {"measurement": "Spleen: Accumulation, basophilic material, number of animals with the finding", "setting": "[8]", "result": "(0)"},
      {"measurement": "Spleen: Vacuolation, macrophages, Mild (animals)", "setting": "[8]", "result": 0},
      {"measurement": "Spleen: Vacuolation, macrophages, Minimal (animals)", "setting": "[8]", "result": 0},
      {"measurement": "Spleen: Vacuolation, macrophages, Moderate (animals)", "setting": "[8]", "result": 0},
      {"measurement": "Spleen: Vacuolation, macrophages, number of animals with the finding", "setting": "[8]", "result": "(0)"}
    ]}
  ]
}
